Assay results taken from patent US9555050B2 (BIOGEN MA INC., priority 2012, dated 2017).

Target: T1, Human ATX protein (Homo sapiens, UniProt Q13822)
T1 construct: made in house
Experiment: ATX biochemical FRET assay with FS-3 substrate
Details: FS-3 substrate 2 μM, ATX 1.0 μg/mL, 30 min preincubation, 2 hours at room temperature
Description: ATX (Autotaxin) is a 125 KDa glycoprotein with lysophospholipase D (LPLD) activity that generates the bioactive lipid lysophosphatidic acid (LPA) from lysophosphatidylcholine (LPC). The ATX biochemical assay utilizes a FRET (fluorescence resonance energy transfer) technology platform. The fluorescence signal of FRET substrate FS-3 is quenched due to intra-molecular FRET of a fluorophore to a non-fluorescing quencher (Ferguson, C. G., et al., Org Lett. 2006 May 11; 8(10): 2023-2026, which is incorporated by reference in its entirety). ATX catalyzes the hydrolysis of the substrate which separates the dabsyl quencher from the fluorescein reporter, which becomes fluorescent. The reaction is monitored by a SpectraMax M5 (Molecular Devices, Sunnyvale, Calif.) with at excitation wavelength 485 nm and emission wavelength […].
Fatty acid free-BSA (Sigma A8806): 10 mg/mL in H2O, stored at 4° C.
2×ATX assay buffer: 100 mM Tris, 280 mM NaCl, 10 mM KCl, 2 mM CaCl2, 2 mM MgCl2, pH 7.4.
Human ATX protein: expressed and purified in house. Stored at −80° C.
Substrate FS-3 (Echelon, L-2000): 100 μg in 77.74.L H2O (1 mM stock), stored at −20° C.
384-well flat bottom plates—Corning #3575.
Compound dilution—All compounds were provided at 10 mM in 100% DMSO. In the first well, 2 μL of 10 mM compound was added to 78 μL of DMSO (1:40 dilution). In subsequent wells 3-fold dilution (total 10 dilutions) were performed.
1×ATX assay buffer was made up with a final concentration of 1 mg/mL fatty acid free-BSA using 2×ATX assay buffer, 10 mg/ml fatty acid free-BSA and ddH2O.
ATX protein was diluted with 1×ATX assay buffer to a concentration of 1.32 μg/mL (1.32×). 38 μL was added per well to the assay plate. The final concentration of ATX in the reaction as 1.0 μg/mL.
2 μL per well of compounds was transferred to provide the desired concentration. The plate was centrifuged, then incubated at room temperature for 30 minutes on the shaker.
FS-3 was diluted with 1×ATX assay buffer to a concentration of FS-3 of 10 μM (5×). Then, 10 μL was added per well to the assay plate. The final concentration of FS-3 in the reaction was 2 μM. The plate was centrifuged. The plate was kept shaking at room temperature for 2 hours. Because FS-3 substrate is light sensitive, plates were kept covered and protected from light.
Fluorescence was measured using SpectraMax M5 (excitation at 485 nm/emission at 538 nm, top read).

Row | Compound | IC50
1 | O=C(O)CC1CCCCN1Cc1ccc2c(C(F)(F)F)c(O[C@H]3CC[C@@H](C(F)(F)F)CC3)ccc2c1 (relative stereo) [Example 27, 2-(1-((5-(trifluoromethyl)-6-((cis)-4-(trifluoromethyl)cyclohexyloxy)naphthalen-2-yl)methyl)piperidin-2-yl)acetic acid] | ≤ 250 nM
2 | C[C@H]1CC[C@@H](Oc2ccc3cc(CN4CCC(CC(=O)O)C4)ccc3c2C(F)(F)F)CC1 (relative stereo) [Example 46, 1-((5-trifluoromethyl-6-(cis-4-methylcyclohexyloxy)naphthalene-2-yl)methyl)-pyrrolidine-3-acetic acid] | ≤ 500 nM
3 | CC(NCc1ccc2c(C(F)(F)F)c(O[C@H]3CC[C@@H](C(F)(F)F)CC3)ccc2c1)C1CCC(C(=O)O)CC1 (relative stereo) [Example 41, 4-(1-((5-(trifluoromethyl)-6-((cis)-4-(trifluoromethyl)cyclohexyloxy)naphthalen-2-yl)methylamino)ethyl)cyclohexanecarboxylic acid] | ≤ 500 nM
4 | C[C@H]1CC[C@@H](Oc2ccc3cc(CN4CCC(C(=O)O)CC4)ccc3c2C(F)F)CC1 [Example 13, 1-((5-(Difluoromethyl)-6-((cis-4-methylcyclohexyl)oxy)naphthalen-2-yl)methyl)piperidine-4-carboxylic acid] | ≤ 100 nM
5 | CC(NC1CC(C(=O)O)C1(C)C)c1ccc2c(C(F)(F)F)c(O[C@H]3CC[C@@H](C(F)(F)F)CC3)ccc2c1 (stereo partly drawn) [Example 37, 2,2-dimethyl-3-(1-(5-(trifluoromethyl)-6-((cis)-4-(trifluoromethyl)cyclohexyloxy)naphthalen-2-yl)ethylamino)cyclobutanecarboxylic acid] | ≤ 100 nM
6 | O=C(O)C1CCN(Cc2ccc3c(C(F)F)c(O[C@H]4CC[C@@H](C(F)(F)F)CC4)ccc3c2)CC1 [Example 21, 1-((5-(difluoromethyl)-6-((cis-4-(trifluoromethyl)cyclohexyl)oxy)naphthalen-2-yl)methyl)piperidine-4-carboxylic acid] | ≤ 250 nM
7 | O=C(O)C[C@H]1CN(Cc2ccc3c(C(F)(F)F)c(O[C@H]4CC[C@@H](C(F)(F)F)CC4)ccc3c2)CCO1 [Example 82, 2-((S)-4-((2-(cis-4-(trifluoromethyl)cyclohexyloxy)-1-(trifluoromethyl)naphthalen-6-yl)methyl)morpholin-2-yl)acetic acid] | ≤ 250 nM
8 | CCC(c1ccc2c(C(F)(F)F)c(O[C@H]3CC[C@@H](CC)CC3)ccc2c1)N1CCC[C@H](CC(=O)O)C1 (stereo partly drawn) [Example 7, 2-((3R)-1-(1-(6-((cis-4-ethylcyclohexyl)oxy)-5-(trifluoromethyl)naphthalen-2-yl)propyl)piperidin-3-yl)acetic acid] | ≤ 100 nM
9 | C[C@H]1CC[C@@H](Oc2ccc3cc(CN4CCC[C@H](CC(=O)O)C4)ccc3c2C(F)F)CC1 [Example 56, 2-((3R)-1-((6-((cis-4-Methylcyclohexyl)oxy)-5-(difluoromethyl)naphthalen-2-yl)methyl)piperidin-3-yl)acetic acid] | ≤ 100 nM
10 | O=C(O)CC1CCN(Cc2ccc3c(C(F)(F)F)c(O[C@H]4CC[C@@H](C(F)(F)F)CC4)ccc3c2)C1 (relative stereo) [Example 64, 1-((5-(trifluoromethyl)-6-((cis-4-(trifluoromethyl)cyclohexyl)oxy)-naphthalen-2-yl)methyl)pyrrolidine-3-acetic acid] | ≤ 250 nM
11 | O=C(O)C1CCC(NCc2ccc3c(C(F)(F)F)c(O[C@H]4CC[C@@H](C(F)(F)F)CC4)ccc3c2)C1 (single isomer, unassigned) [Example 3b, 3-(((5-(trifluoromethyl)-6-((cis-4-(trifluoromethyl)cyclohexyl)oxy)-naphthalen-2-yl)methyl)amino)cyclopentanecarboxylic acid] | ≤ 500 nM
12 | O=C(O)[C@H]1CC[C@H](CNCc2ccc3c(C(F)F)c(O[C@H]4CC[C@@H](C(F)(F)F)CC4)ccc3c2)CC1 [Example 34, (trans)-4-(((5-(difluoromethyl)-6-((cis)-4-(trifluoromethyl)cyclohexyloxy)naphthalen-2-yl)methylamino)methyl)cyclohexanecarboxylic acid] | ≤ 250 nM
13 | O=C(O)[C@@H]1CCCN(Cc2ccc3c(C(F)(F)F)c(O[C@H]4CC[C@@H](C(F)(F)F)CC4)ccc3c2)C1 [Example 24, (R)-1-((5-(trifluoromethyl)-6-((cis)-4-(trifluoromethyl)cyclohexyloxy)naphthalen-2-yl)methyl)piperidine-3-carboxylic acid] | ≤ 500 nM
14 | O=C(O)c1ccc(CNC(=O)c2ccc3c(C(F)(F)F)c(O[C@H]4CC[C@@H](C(F)(F)F)CC4)ccc3c2)nc1 [Example 23, 6-((5-(trifluoromethyl)-6-((cis)-4-(trifluoromethyl)cyclohexyloxy)-2-naphthamido)methyl)nicotinic acid] | ≤ 500 nM
15 | C[C@@H](c1ccc2c(C(F)F)c(O[C@H]3CC[C@@H](C)CC3)ccc2c1)N1CCC[C@@H](CC(=O)O)C1 [Example 100, 2-((S)-1-((S)-1-(2-(cis-4-methylcyclohexyloxy)-1-(difluoromethyl)naphthalen-6-yl)ethyl)piperidin-3-yl)acetic acid] | ≤ 100 nM
16 | CC1(C)C(NC(c2ccc3c(C(F)(F)F)c(O[C@H]4CC[C@@H](C)CC4)ccc3c2)C2CC2)CC1C(=O)O (stereo partly shown) [Example 38] | ≤ 250 nM
17 | CC1(C)C(NCc2ccc3c(C(F)F)c(O[C@H]4CC[C@@H](C(F)(F)F)CC4)ccc3c2)CC1C(=O)O (relative stereo) [Example 33, 3-((5-(difluoromethyl)-6-((cis)-4-(trifluoromethyl)cyclohexyloxy)naphthalen-2-yl)methylamino)-2,2-dimethylcyclobutanecarboxylic acid] | ≤ 500 nM
18 | CCC(c1ccc2c(C(F)F)c(O[C@H]3CC[C@@H](C)CC3)ccc2c1)N1CCC[C@H](CC(=O)O)C1 (stereo partly drawn) [Example 57, 2-((3R)-1-(1-(6-((cis-4-Methylcyclohexyl)oxy)-5-(difluoromethyl)naphthalen-2-yl)propyl)piperidin-3-yl)acetic acid] | ≤ 100 nM
19 | C[C@@H](c1ccc2c(C(F)F)c(O[C@H]3CC[C@@H](C)CC3)ccc2c1)N1CCC[C@H](CC(=O)O)C1 [Example 91, 2-((3R)-1-((S)-1-(6-((cis-4-Methylcyclohexyl)oxy)-5-(difluoromethyl)naphthalen-2-yl)ethyl)piperidin-3-yl)acetic acid] | ≤ 100 nM
20 | O=C(O)C[C@H]1CCCN(Cc2ccc3c(C(F)(F)F)c(O[C@H]4CC[C@@H](C(F)(F)F)CC4)ccc3n2)C1 [Example 14, 2-((R)-1-(((5-(trifluoromethyl)-6-(cis-4-(trifluoromethyl)cyclohexyl)oxy)quinolin-2-yl)methyl)piperidin-3-yl)acetic acid] | ≤ 250 nM
21 | CC(c1ccc2c(C(F)F)c(O[C@H]3CC[C@@H](C)CC3)ccc2c1)N1CC(CC(=O)O)C1 (relative stereo) [Example 98, 1-(1-(5-(Difluoromethyl)-6-((cis-4-methylcyclohexyl)oxy)naphthalen-2-yl)ethyl)azetidine-3-acetic acid] | ≤ 100 nM
22 | CCC(c1ccc2c(C(F)(F)F)c(O[C@H]3CC[C@@H](C)CC3)ccc2c1)N1CCC(C(=O)O)CC1 (relative stereo) [Example 50, 1-(1-(6-((cis-4-Methylcyclohexyl)oxy)-5-(trifluoromethyl)naphthalen-2-yl)propyl)piperidine-4-carboxylic acid] | ≤ 500 nM
23 | O=C(O)CC1CN(Cc2ccc3c(C(F)(F)F)c(O[C@H]4CC[C@@H](C(F)(F)F)CC4)ccc3c2)C1 [Example 62, 2-(1-((5-(trifluoromethyl)-6-(4-cis-(trifluoromethyl)cyclohexyloxy)naphthalene-2-yl)methyl)azetidine-3-yl)acetic acid] | ≤ 250 nM
24 | CC1(C(=O)O)CCN(Cc2ccc3c(C(F)(F)F)c(O[C@H]4CC[C@@H](C(F)(F)F)CC4)ccc3c2)CC1 [Example 30, 4-methyl-1-((5-(trifluoromethyl)-6-((cis)-4-(trifluoromethyl)cyclohexyloxy)naphthalen-2-yl)methyl)piperidine-4-carboxylic acid] | ≤ 500 nM
25 | C[C@H]1CC[C@@H](Oc2ccc3cc(C(N4CCC(C(=O)O)CC4)C(F)(F)F)ccc3c2C(F)(F)F)CC1 (stereo partly drawn) [Example 12, 1-(2,2,2-Trifluoro-1-(6-((cis-4-methylcyclohexyl)oxy)-5-(trifluoromethyl)naphthalen-2-yl)ethyl)piperidine-4-carboxylic acid] | ≤ 500 nM
